Source: patent publication US12077503B2, “Substituted cyclic amides and their use as herbicides” (FMC CORPORATION, priority 2015, dated 2024)

Key:
Type in all cases: in vivo
[1] = tested on: Galium (catchweed bedstraw, Galium aparine); assay: Test C preemergence; conditions: for Plant response rating, Galium: scale 0 to 100, 0 no effect, 100 complete control
Outline: (§1)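 Greenhouse test: seeds in a loam and sand blend treated preemergence, or seedlings at the 1- to 4-leaf stage (2 to 18 cm) in a peat, vermiculite and limestone mix treated postemergence, with test chemicals in a surfactant-containing non-phytotoxic solvent. Scored by eye at 13 to 15 d relative to controls, 0 (no effect) to 100 (complete control).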

[2] = tested on: barnyardgrass (Echinochloa crus-galli); assay: Test C preemergence; conditions: for Plant response rating, Barnyardgrass: scale 0 to 100, 0 no effect, 100 complete control
Outline: as §1

[3] = tested on: blackgrass (Alopecurus myosuroides); assay: Test C preemergence; conditions: for Plant response rating, Blackgrass: scale 0 to 100, 0 no effect, 100 complete control
Outline: as §1

[4] = tested on: corn (Zea mays); assay: Test C preemergence; conditions: for Plant response rating, Corn: scale 0 to 100, 0 no effect, 100 complete control
Outline: as §1

[5] = tested on: crabgrass, large (large crabgrass, Digitaria sanguinalis); assay: Test C preemergence; conditions: for Plant response rating, Crabgrass, Large: scale 0 to 100, 0 no effect, 100 complete control
Outline: as §1

[6] = tested on: johnsongrass (Sorghum halepense); assay: Test C preemergence; conditions: for Plant response rating, Johnsongrass: scale 0 to 100, 0 no effect, 100 complete control
Outline: as §1

[7] = tested on: lambsquarters (Chenopodium album); assay: Test C preemergence; conditions: for Plant response rating, Lambsquarters: scale 0 to 100, 0 no effect, 100 complete control
Outline: as §1

[8] = tested on: morningglory (Ipomoea coccinea); assay: Test C preemergence; conditions: for Plant response rating, Morningglory: scale 0 to 100, 0 no effect, 100 complete control
Outline: as §1

[9] = tested on: nutsedge, yellow (yellow nutsedge, Cyperus esculentus); assay: Test C preemergence; conditions: for Plant response rating, Nutsedge, Yellow: scale 0 to 100, 0 no effect, 100 complete control
Outline: as §1

[10] = tested on: oilseed rape (Brassica napus); assay: Test C preemergence; conditions: for Plant response rating, Oilseed Rape: scale 0 to 100, 0 no effect, 100 complete control
Outline: as §1

[11] = tested on: pigweed (Amaranthus retroflexus); assay: Test C preemergence; conditions: for Plant response rating, Pigweed: scale 0 to 100, 0 no effect, 100 complete control
Outline: as §1

[12] = tested on: ragweed (common ragweed, Ambrosia elatior); assay: Test C preemergence; conditions: for Plant response rating, Ragweed: scale 0 to 100, 0 no effect, 100 complete control
Outline: as §1

[13] = tested on: ryegrass, Italian (Italian ryegrass, Lolium multiflorum); assay: Test C preemergence; conditions: for Plant response rating, Ryegrass, Italian: scale 0 to 100, 0 no effect, 100 complete control
Outline: as §1

[14] = tested on: soybean (Glycine max); assay: Test C preemergence
Outline: as §1

[15] = tested on: velvetleaf (Abutilon theophrasti); assay: Test C preemergence; conditions: for Plant response rating, Velvetleaf: scale 0 to 100, 0 no effect, 100 complete control
Outline: as §1

[16] = tested on: waterhemp (common waterhemp, Amaranthus rudis); assay: Test C preemergence; conditions: for Plant response rating, Waterhemp: scale 0 to 100, 0 no effect, 100 complete control
Outline: as §1

[17] = tested on: wheat (winter wheat, Triticum aestivum); assay: Test C preemergence; conditions: for Plant response rating, Wheat: scale 0 to 100, 0 no effect, 100 complete control
Outline: as §1

[18] = tested on: barnyardgrass (Echinochloa crus-galli); assay: Test C flooded paddy test; conditions: Flood; for Plant response rating (scale of 0 to 100), Barnyardgrass: 0 is no effect, 100 is complete control
Outline: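 Scores express visual response relative to untreated controls, 0 meaning no effect and 100 complete control, assessed 13 to 15 d after treatment in the greenhouse. Compound went into water flooded 3 cm above soil around 2-leaf plants.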

[19] = 31 g ai/ha, 0 is no effect, 100 is complete control

Cc1ccc(C2CN(C)C(=O)C2C(=O)Nc2ccccc2F)cc1F (stereo not shown) [Compound 465]
Plant response rating (scale of 0 to 100), Galium [1, 19]: 80 | Plant response rating, Galium ([1]; 62 g ai/ha): 85 | Plant response rating, Galium ([1]; 125 g ai/ha): 90 | Plant response rating, Galium ([1]; 250 g ai/ha): 98 | Plant response rating (scale of 0 to 100), Barnyardgrass [2, 19]: 90 | Plant response rating, Barnyardgrass ([2]; 62 g ai/ha): 95 | Plant response rating, Barnyardgrass ([2]; 125 g ai/ha): 98 | Plant response rating, Barnyardgrass ([2]; 250 g ai/ha): 100 | Plant response rating (scale of 0 to 100), Blackgrass [3, 19]: 20 | Plant response rating, Blackgrass ([3]; 62 g ai/ha): 50 | Plant response rating, Blackgrass ([3]; 125 g ai/ha): 80 | Plant response rating, Blackgrass ([3]; 250 g ai/ha): 90 | Plant response rating (scale of 0 to 100), Corn [4, 19]: 40 | Plant response rating, Corn ([4]; 62 g ai/ha): 55 | Plant response rating, Corn ([4]; 125 g ai/ha): 65 | Plant response rating, Corn ([4]; 250 g ai/ha): 90 | Plant response rating (scale of 0 to 100), Crabgrass, Large [5, 19]: 100 | Plant response rating, Crabgrass, Large ([5]; 62 g ai/ha): 100 | Plant response rating, Crabgrass, Large ([5]; 125 g ai/ha): 100 | Plant response rating, Crabgrass, Large ([5]; 250 g ai/ha): 100 | Plant response rating (scale of 0 to 100), Johnsongrass [6, 19]: 10 | Plant response rating, Johnsongrass ([6]; 62 g ai/ha): 65 | Plant response rating, Johnsongrass ([6]; 125 g ai/ha): 80 | Plant response rating, Johnsongrass ([6]; 250 g ai/ha): 85 | Plant response rating (scale of 0 to 100), Lambsquarters [7, 19]: 75 | Plant response rating, Lambsquarters ([7]; 62 g ai/ha): 75 | Plant response rating, Lambsquarters ([7]; 125 g ai/ha): 85 | Plant response rating, Lambsquarters ([7]; 250 g ai/ha): 100 | Plant response rating (scale of 0 to 100), Morningglory [8, 19]: 5 | Plant response rating, Morningglory ([8]; 62 g ai/ha): 20 | Plant response rating, Morningglory ([8]; 125 g ai/ha): 25 | Plant response rating, Morningglory ([8]; 250 g ai/ha): 50 | Plant response rating (scale of 0 to 100), Nutsedge, Yellow [9, 19]: 0 | Plant response rating, Nutsedge, Yellow ([9]; 62 g ai/ha): 0 | Plant response rating, Nutsedge, Yellow ([9]; 125 g ai/ha): 0 | Plant response rating, Nutsedge, Yellow ([9]; 250 g ai/ha): 0 | Plant response rating (scale of 0 to 100), Oilseed Rape [10, 19]: 30 | Plant response rating, Oilseed Rape ([10]; 62 g ai/ha): 10 | Plant response rating, Oilseed Rape ([10]; 125 g ai/ha): 85 | Plant response rating, Oilseed Rape ([10]; 250 g ai/ha): 90 | Plant response rating (scale of 0 to 100), Pigweed [11, 19]: 10 | Plant response rating, Pigweed ([11]; 62 g ai/ha): 25 | Plant response rating, Pigweed ([11]; 125 g ai/ha): 60 | Plant response rating, Pigweed ([11]; 250 g ai/ha): 55 | Plant response rating (scale of 0 to 100), Ragweed [12, 19]: 0 | Plant response rating, Ragweed ([12]; 62 g ai/ha): 60 | Plant response rating, Ragweed ([12]; 125 g ai/ha): 75 | Plant response rating, Ragweed ([12]; 250 g ai/ha): 80 | Plant response rating (scale of 0 to 100), Ryegrass, Italian [13, 19]: 10 | Plant response rating, Ryegrass, Italian ([13]; 62 g ai/ha): 70 | Plant response rating, Ryegrass, Italian ([13]; 125 g ai/ha): 65 | Plant response rating, Ryegrass, Italian ([13]; 250 g ai/ha): 65 | Plant response rating (scale of 0 to 100), Soybean [14, 19]: 5 | Plant response rating, Soybean ([14]; 250 g ai/ha, scale 0 to 100, 0 no effect, 100 complete control): 15 | Plant response rating (scale of 0 to 100), Velvetleaf [15, 19]: 15 | Plant response rating, Velvetleaf ([15]; 62 g ai/ha): 5 | Plant response rating, Velvetleaf ([15]; 125 g ai/ha): 55 | Plant response rating, Velvetleaf ([15]; 250 g ai/ha): 65 | Plant response rating (scale of 0 to 100), Waterhemp [16, 19]: 60 | Plant response rating, Waterhemp ([16]; 62 g ai/ha): 70 | Plant response rating, Waterhemp ([16]; 125 g ai/ha): 80 | Plant response rating, Waterhemp ([16]; 250 g ai/ha): 80 | Plant response rating (scale of 0 to 100), Wheat [17, 19]: 20 | Plant response rating, Wheat ([17]; 62 g ai/ha): 70 | Plant response rating, Wheat ([17]; 125 g ai/ha): 80 | Plant response rating, Wheat ([17]; 250 g ai/ha): 95 | Plant response rating, Barnyardgrass ([18]; 16 g ai/ha, scale 0 to 100 (0 no effect, 100 complete control), 13 to 15 d): 0 | Plant response rating (scale of 0 to 100), Barnyardgrass ([18]; 31 g ai/ha): 25 | Plant response rating (scale of 0 to 100), Barnyardgrass ([18]; 62 g ai/ha): 45 | Plant response rating (scale of 0 to 100), Barnyardgrass ([18]; 125 g ai/ha): 70
